According to patent US20050031597A1, “Cells and improved method for preserving cells” (priority 2003, published 2005):

Test system: erythrocytic cells
Test: Hemolysis / survival of freeze-dried and rehydrated erythrocytic cells

For O=S(=O)([O-])[O-].[Zn+2] [ZnSO4], the “hemolysis after freeze-drying and rehydration” value (FIG. 22 [T+αC]+5 min+Zn: α-crystallin 1.2 mg/ml loading, 5 min pre-hydration, 500 μM ZnSO4 in rehydration buffer) was 38% and the cell survival (α-crystallin, 5 min pre-hydration and 500 μM ZnSO4 combined) was 62%.
In the case of “α-crystallin: member of the small heat shock protein family”, the “cell survival after rehydration” value (1.2 mg/ml α-crystallin in loading plus 0.5 mg/ml α-crystallin in rehydration buffer) was “does not result in higher cell survival”, the “hemolysis after freeze-drying and rehydration” value (FIG. 22 [T+αC]+5 min: α-crystallin 1.2 mg/ml in loading buffer, pre-hydrated 37° C. 5 min) was 47% and the “percent hemolysis after freeze-drying and direct rehydration” value (loaded in 800 mM trehalose, 100 mOsm ADSOL, 6.6 mM Na-phosphate and 1.2 mg/ml α-crystallin (FIG. 21)) was 49%.
